Data: ChEMBL document CHEMBL1138036, “Simplified cyclic analogues of bastadin-5. Structure-activity relationships for modulation of the RyR1/FKBP12 Ca2+ channel complex” (J Med Chem, 2006)

Assays:
[1] = biological target: RyR1/FKBP12 (Oryctolagus cuniculus); experiment: Agonist like activity at skeletal junction sarcoplasmic reticulum RyR1/FKBP12 complex assessed as increase in [3H]ryanodine binding
[2] = biological target: RyR1/FKBP12 (Oryctolagus cuniculus); experiment: Antagonist like activity at skeletal junction sarcoplasmic reticulum RyR1/FKBP12 complex assessed as decrease in [3H]ryanodine binding

SMILES | EC50 [1] [µM] | IC50 [2] [µM]
O=C1CCNC(=O)CCc2ccc(c([N+](=O)[O-])c2)Oc2cc(cc(Br)c2O)CCN1 | 24 | 
[N-]=[N+]=Nc1ccc(I)cc1C(=O)NCCCC[C@H]1CC(=O)NCCc2cc(Br)c(O)c(c2)Oc2cc(Br)c(cc2Br)CCC(=O)N1 | 6.5 | 
[N-]=[N+]=Nc1cc2ccc1Oc1cc(cc(Br)c1O)CCNC(=O)CC2 |  | 63
O=C1CCc2ccc(c(I)c2)Oc2cc(cc(Br)c2O)CCN1 | 28.6 | 
O=C1CCc2ccc(cc2)Oc2cc(cc(Br)c2O)CCN1 | > 100 | 
O=C1CCc2cc(Br)c(cc2Br)Oc2cc(cc(Br)c2O)CCN1 | > 100 | 
Nc1cc2ccc1Oc1cc(cc(Br)c1O)CCNC(=O)CCNC(=O)CC2 | 21 | 
Nc1cc2ccc1Oc1cc(cc(Br)c1O)CCNC(=O)CC2 | 33 | 
[N-]=[N+]=Nc1cc2ccc1Oc1cc(cc(Br)c1O)CCNC(=O)CCNC(=O)CC2 | 20 | 
COC(=O)c1cc(I)ccc1N=[N+]=[N-] | > 100 | 
O=C1CCc2ccc(c([N+](=O)[O-])c2)Oc2cc(cc(Br)c2O)CCN1 | 20.9 | 
[N-]=[N+]=Nc1ccc(I)cc1C(=O)NCCCC[C@H]1CC(=O)NCCc2cc(Br)c(O)c(c2)Oc2ccc(cc2Br)CCC(=O)N1 | > 100 | 
O=C1CCNC(=O)CCc2cc(Br)c(cc2Br)Oc2cc(cc(Br)c2O)CCN1 |  | 47
O=C1CCc2ccc(c(Br)c2)Oc2cc(cc(Br)c2O)CCN1 | 10.9 | 
